Test results taken from US9492368B2, “External preparation for skin” (HAYASHIBARA CO., LTD., priority 2011, dated 2016).

Legend:
[1] = test system: keratinocyte growth factor (KGF); experiment: Expression of keratinocyte growth factor in NHDF cells (real-time PCR); format: cell-based, human; conditions: four hours, control = 1.0
Description: The confirmation that glucosyladenosines have an action of enhancing the differentiation of keratinocytes in Experiments 5 and 7 led to an examination on keratinocyte proliferation. The effects of 5′- and […] on the expression of keratinocyte growth factor (KGF) in normal human dermal fibroblasts (NHDF) were compared. […] After the culture, the supernatant in each well was removed and added with 5′-glucosyladenosine obtained by the method in Experiment 1-2 or 3′-glucosyladenosine obtained by the method in Experiment 2, which were respectively diluted with a DMEM medium supplemented with 1 v/v % FCS to give respective concentrations of 0.15 mM and 1.5 mM. A DMEM medium supplemented with 1 v/v % FCS but with no glucosyladenosines was used as a control. The cells were cultured at 37° C. for four hours under a 5 v/v % CO2 condition, washed twice with PBS(−) after removing the culture supernatants in each well by aspiration, and fed to an RNA extraction.
“QIA shledder+RNeasy Mini Kit”, a product name of a commercialized RNA extraction kit, produced by GIAGEN Benelux B.V., Netherlands, was used to extract the total RNAs. The handlings followed the operating instructions attached to the kit. Using “Super Script VILO cDNA Synthesis Kit”, a product name of a cDNA synthesis kit, commercialized by Invitrogen Corporation, CA, USA, an RT reaction was conducted under the conditions of treating a mixture of 10.5 μl of RNA, three microliters of 5×VILO reaction mix, 1.5 μl of 10× enzyme mix (15 μl in total) at 25° C. for 10 min, 42° C. for 60 min, and then 85° C. for five minutes.
Using “LightCycler 480 SYBR Green I Master”, a product name of Roche Diagnostics K.K., Tokyo, Japan, a real-time PCR reaction was conducted by mixing 1.8 μl of water, 6.0 μl of master mix, 0.6 μl of primer L (10 μM), 0.6 μl of primer R (10 μM), and 3.0 μl of template (12.0 μl in total), and treated with 45 cycles of a successive incubation cycle at 95° C. for 10 sec, 60° C. for 10 sec, and 72° C. for 15 sec). The KGF expression level in each sample was calculated from a standard curve and calibrated with the expression level of an internal standard (18s rRNA). Relative value for each sample was determined, when the expression level of the control was regarded as 1.0, and evaluated. The primers used were of Table 9.

[2] = test system: three-dimensional skin model (EPI-200 Kit); conditions: human, 24 h, 0.1 %
Description: “EPI Assay Medium”, a product name of EPI100 assay medium commercialized by Kurabo Industries Ltd., Okayama, Japan, was added to “12-WELL MULTI-MICROPLATE”, a product name of 12-well plate commercialized by Becton, Dickinson and Company, NJ, USA, in a volume of 0.33 ml/well; and “EPI-200 Kit”, a product name of a three-dimensional skin model cup, commercialized by Kanebo Cosmetics Inc., Tokyo, Japan, was transferred to each well. […] 5′-Glucosyladenosine prepared by the method in Experiment 1-2,3′-glucosyladenosine prepared by the method in Experiment 2, or adenosine was dissolved in 30% ethanol to give a final concentration of 0.1%, and 0.1 ml of each of the resulting solutions was added to each of the skin model cup. After incubating at 37° C. for 24 hours in a 5% CO2 condition, sample solutions (media in wells) were collected, subjected to ultrafiltration with “[sequence] 0.5 BIOMAX-5 MEMBRANE”, a product name of membrane commercialized by Nihon Millipore K.K., Tokyo, Japan, and diluted with the mobile phase. The diluent was subjected to HPLC under the following conditions and determined for the contents of 5′- and 3′-glucosyladenosines with an alternatively prepared standard curve.
<Conditions for HPLC Analysis>
Apparatus: an HPLC Pump, MODEL 510; a pump controller, MODEL 680; an autoinjector, MODEL 712; a detector, MODEL 2487; a data processing (quantity calculation), EMPOWER 2 SOFTWARRE, commercialized by Nihon Millipore K.K., Tokyo, Japan;
Column: “YMC-PACK ODS AQ-303”, a product name of an ODS column, ø4.6 mm×250 mm, commercialized by YMC Co., Ltd., Kyoto, Japan;
Mobile phase: {20 mM Acetic acid-ammonium acetate buffer (pH 3.5)}/(methanol)=92/8 (v/v);
Detection wavelength: 260 nm;
Injection volume: 10 μl; and
Column temperature: 40° C.

Compound	Relative expression level of KGF ([1]; 0.15 mM)	Relative expression level of KGF ([1]; 1.5 mM)	Composition of permeated solution: adenosine [2] [%]	Composition of permeated solution: hypoxanthine [2] [%]	Composition of permeated solution: inosine [2] [%]	Concentration of adenosine in permeated solution [2] [nM]	Concentration of hypoxanthine in permeated solution [2] [µM]	Concentration of inosine in permeated solution [2] [µM]
Nc1ncnc2c1ncn2[C@@H]1O[C@H](CO[C@H]2O[C@H](CO)[C@@H](O)[C@H](O)[C@H]2O)[C@@H](O)[C@H]1O [5′-Glucosyladenosine, α-D-glucopyranosyl-(1→5′)-adenosine]	0.9	1.4						
Nc1ncnc2c1ncn2[C@@H]1O[C@H](CO)[C@@H](O[C@H]2O[C@H](CO)[C@@H](O)[C@H](O)[C@H]2O)[C@H]1O [3′-Glucosyladenosine, α-D-glucopyranosyl-(1→3′)-adenosine]	2.3	2.7						
Nc1ncnc2c1ncn2[C@@H]1O[C@H](CO)[C@@H](O)[C@H]1O [Adenosine, reference compound]			0	77	23	0	187	55
